Measured values published in the supplement of paper PMC10307832.

Columns and labels:
Experiment in all cases: relative viability (nuclei count vs DMSO), 5 days (fraction); higher = more cells survive
[1] = compound: Cc1cc([C@@H](C)Nc2ccccc2C(=O)O)c2nc(N3CCOCC3)cc(=O)n2c1 [AZD6482] + CC(C)C[C@H](NC(=O)[C@H](Cc1ccccc1)NC(=O)c1cnccn1)B(O)O [Bortezomib] (partner 0.002 µM)
Method in brief: (§1)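 Relative viability was taken as the ratio of nuclei in treated wells to nuclei in vehicle wells. Lung cancer cell lines in 1536-well plates received compounds by pin tool one day after seeding, either one drug alone or a fixed anchor-drug dose plus five library-drug doses (not always all listed) in √10 steps. Nuclei were counted on 4× images after 5 days of treatment, and values are medians of duplicate plates.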

[2] = compound: Cc1cc([C@@H](C)Nc2ccccc2C(=O)O)c2nc(N3CCOCC3)cc(=O)n2c1 [AZD6482] + C[C@@H](Oc1cc(-c2cnn(C3CCNCC3)c2)cnc1N)c1c(Cl)ccc(F)c1Cl [Crizotinib] (partner 1 µM)
Method in brief: as §1

[3] = compound: COc1cc2nc(N3CCCN(C)CC3)nc(NC3CCN(Cc4ccccc4)CC3)c2cc1OC + COc1cc2c(Oc3ccc(NC(=O)C4(C(=O)Nc5ccc(F)cc5)CC4)cc3F)ccnc2cc1OCCCN1CCOCC1 [Foretinib] (partner 0.25 µM)
Method in brief: as §1

[4] = compound: COc1cc2nc(N3CCCN(C)CC3)nc(NC3CCN(Cc4ccccc4)CC3)c2cc1OC + Nc1nc2[nH]cc(CCc3ccc(C(=O)N[C@@H](CCC(=O)O)C(=O)O)cc3)c2c(=O)[nH]1 [Pemetrexed] (partner 0.2 µM)
Method in brief: as §1

## UMC-11
[1]; first compound 0.08 µM
  relative viability: 0.836
[1]; first compound 0.253 µM
  relative viability: 0.628
[1]; first compound 0.8 µM
  relative viability: 0.862
[1]; first compound 2.53 µM
  relative viability: 0.627
[1]; first compound 8 µM
  relative viability: 0.75
[2]; first compound 0.08 µM
  relative viability: 0.505
[2]; first compound 0.253 µM
  relative viability: 0.578
[2]; first compound 0.8 µM
  relative viability: 0.628
[2]; first compound 2.53 µM
  relative viability: 0.516
[2]; first compound 8 µM
  relative viability: 0.511
[3]; first compound 0.2 µM
  relative viability: 0.943
[3]; first compound 0.6325 µM
  relative viability: 1.05
[3]; first compound 2 µM
  relative viability: 1.15
[3]; first compound 6.325 µM
  relative viability: 0.826
[4]; first compound 0.2 µM
  relative viability: 0.86
[4]; first compound 0.6325 µM
  relative viability: 0.773
[4]; first compound 2 µM
  relative viability: 0.834
[4]; first compound 6.325 µM
  relative viability: 0.588
